In patent US11572399B2, “Long-acting GIP peptide analogues” (University of Copenhagen, priority 2017, dated 2023):
Peptide text beside a SMILES is read from it. * marks the point of attachment. C16 diacid = O=C(O)CCCCCCCCCCCCCCC(=O)*

Experiments:
human GIP receptor [1] = biological target: T1, human GIP receptor (Homo sapiens, UniProt P48546); assay: cAMP accumulation assay, antagonism of a GIP-mediated cAMP response (50-80% of max); type: cell-based; settings: transiently transfected COS-7 cells; Table 1 and text; read-out: cAMP antagonism nM (IC50, antagonistic potency)
T1 construct: host or cells: COS-7, transient transfection (calcium phosphate), cDNA in pCMV-Script
T1 sequence (P48546 22-466): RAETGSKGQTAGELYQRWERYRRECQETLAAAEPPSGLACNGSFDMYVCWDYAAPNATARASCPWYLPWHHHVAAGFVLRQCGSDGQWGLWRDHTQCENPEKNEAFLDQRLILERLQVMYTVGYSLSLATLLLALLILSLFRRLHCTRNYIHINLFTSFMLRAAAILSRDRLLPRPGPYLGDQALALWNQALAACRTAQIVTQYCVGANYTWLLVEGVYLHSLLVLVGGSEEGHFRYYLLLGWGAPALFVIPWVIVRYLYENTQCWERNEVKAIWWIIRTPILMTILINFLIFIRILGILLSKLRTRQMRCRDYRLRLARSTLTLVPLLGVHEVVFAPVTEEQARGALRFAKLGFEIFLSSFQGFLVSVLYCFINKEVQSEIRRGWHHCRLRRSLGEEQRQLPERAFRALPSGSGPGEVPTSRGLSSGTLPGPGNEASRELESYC
Description: The day after, the cells were washed twice with Hepes buffered saline (HBS) buffer and incubated with HBS and 1 mM 3-isobutyl-1-methylxanthine (IBMX) for 30 min at 37° C. […] The HitHunter™ cAMP XS assay (DiscoveRx) was carried out according to the manufacturer's instructions.

human GIP receptor [2] = biological target: T1, human GIP receptor; assay: cAMP accumulation assay, agonism (ligand alone); type: cell-based; settings: COS-7 cells, Table 1; for Emax: COS-7, intrinsic cAMP activity; for EC50: read-out: cAMP agonism nM (EC50)

Structure (SMILES) | IC50 (human GIP receptor [1]) | Emax (human GIP receptor [2]) | EC50 (human GIP receptor [2]) | cAMP agonism Emax (human GIP receptor [2]; intrinsic cAMP activity)
CC[C@H](C)[C@H](NC(=O)[C@H](CO)NC(=O)[C@H](Cc1ccc(O)cc1)NC(=O)[C@H](CC(=O)O)NC(=O)[C@H](CO)NC(=O)[C@@H](NC(=O)[C@H](CCCCNC(=O)CCCCCCCCCCCCCCC(=O)O)NC(=O)[C@@H](NC(=O)CNC(=O)[C@@H](N)CCC(=O)O)[C@@H](C)O)[C@@H](C)CC)C(=O)N[C@@H](C)C(=O)N[C@@H](CCSC)C(=O)N[C@@H](CC(=O)O)C(=O)N[C@@H](CCCCN)C(=O)N[C@H](C(=O)N[C@@H](Cc1c[nH]cn1)C(=O)N[C@@H](CCC(N)=O)C(=O)N[C@@H](CCC(N)=O)C(=O)N[C@@H](CC(=O)O)C(=O)N[C@@H](Cc1ccccc1)C(=O)N[C@H](C(=O)N[C@@H](CC(N)=O)C(=O)N[C@@H](Cc1c[nH]c2ccccc12)C(=O)N[C@@H](CC(C)C)C(=O)N[C@@H](CC(C)C)C(=O)N[C@@H](C)C(=O)N[C@@H](CCC(N)=O)C(=O)N[C@@H](CCCCN)C(N)=O)C(C)C)[C@@H](C)CC [AT297, [hGIP(3-30)NH2[F6K]-C16diacid/6]] | 603 nM | 19% | – | –
CC[C@H](C)[C@H](NC(=O)[C@H](CO)NC(=O)[C@H](Cc1ccc(O)cc1)NC(=O)[C@H](CC(=O)O)NC(=O)[C@H](CO)NC(=O)[C@@H](NC(=O)[C@H](Cc1ccccc1)NC(=O)[C@@H](NC(=O)CNC(=O)[C@@H](N)CCC(=O)O)[C@@H](C)O)[C@@H](C)CC)C(=O)N[C@@H](C)C(=O)N[C@@H](CCSC)C(=O)N[C@@H](CCCCNC(=O)CCCCCCCCCCCCCCC(=O)O)C(=O)N[C@@H](CCCCN)C(=O)N[C@H](C(=O)N[C@@H](Cc1c[nH]cn1)C(=O)N[C@@H](CCC(N)=O)C(=O)N[C@@H](CCC(N)=O)C(=O)N[C@@H](CC(=O)O)C(=O)N[C@@H](Cc1ccccc1)C(=O)N[C@H](C(=O)N[C@@H](CC(N)=O)C(=O)N[C@@H](Cc1c[nH]c2ccccc12)C(=O)N[C@@H](CC(C)C)C(=O)N[C@@H](CC(C)C)C(=O)N[C@@H](C)C(=O)N[C@@H](CCC(N)=O)C(=O)N[C@@H](CCCCN)C(N)=O)C(C)C)[C@@H](C)CC [AT306, [hGIP(3-30)NH2[D15K]-C16diacid/15]] (H-EGTFISDYSIAMK(C16 diacid)KIHQQDFVNWLLAQK-NH2; N-terminus assumed) | 53 nM | 6.6% | 13 nM | –
CCCCCCCCCCCC(=O)NCCCC[C@H](NC(=O)[C@H](CCC(N)=O)NC(=O)[C@H](C)NC(=O)[C@H](CC(C)C)NC(=O)[C@H](CC(C)C)NC(=O)[C@H](Cc1c[nH]c2ccccc12)NC(=O)[C@H](CC(N)=O)NC(=O)[C@@H](NC(=O)[C@H](Cc1ccccc1)NC(=O)[C@H](CC(=O)O)NC(=O)[C@H](CCC(N)=O)NC(=O)[C@H](CCC(N)=O)NC(=O)[C@H](Cc1c[nH]cn1)NC(=O)[C@@H](NC(=O)[C@H](CCCCN)NC(=O)[C@H](CC(=O)O)NC(=O)[C@H](CCSC)NC(=O)[C@H](C)NC(=O)[C@@H](NC(=O)[C@H](CO)NC(=O)[C@H](Cc1ccc(O)cc1)NC(=O)[C@H](CC(=O)O)NC(=O)[C@H](CO)NC(=O)[C@@H](NC(=O)[C@H](Cc1ccccc1)NC(=O)[C@@H](NC(=O)CNC(=O)[C@@H](N)CCC(=O)O)[C@@H](C)O)[C@@H](C)CC)[C@@H](C)CC)[C@@H](C)CC)C(C)C)C(N)=O [AT103, [hGIP(3-30)NH2—C12/30]] | 121 nM | 7% | – | –
CC[C@H](C)[C@H](NC(=O)[C@H](CO)NC(=O)[C@H](Cc1ccc(O)cc1)NC(=O)[C@H](CC(=O)O)NC(=O)[C@H](CO)NC(=O)[C@H](CCCCNC(=O)CCCCCCCCCCCCCCC(=O)O)NC(=O)[C@H](Cc1ccccc1)NC(=O)[C@@H](NC(=O)CNC(=O)[C@@H](N)CCC(=O)O)[C@@H](C)O)C(=O)N[C@@H](C)C(=O)N[C@@H](CCSC)C(=O)N[C@@H](CC(=O)O)C(=O)N[C@@H](CCCCN)C(=O)N[C@H](C(=O)N[C@@H](Cc1c[nH]cn1)C(=O)N[C@@H](CCC(N)=O)C(=O)N[C@@H](CCC(N)=O)C(=O)N[C@@H](CC(=O)O)C(=O)N[C@@H](Cc1ccccc1)C(=O)N[C@H](C(=O)N[C@@H](CC(N)=O)C(=O)N[C@@H](Cc1c[nH]c2ccccc12)C(=O)N[C@@H](CC(C)C)C(=O)N[C@@H](CC(C)C)C(=O)N[C@@H](C)C(=O)N[C@@H](CCC(N)=O)C(=O)N[C@@H](CCCCN)C(N)=O)C(C)C)[C@@H](C)CC [AT298, [hGIP(3-30)NH2[I7K]-C16diacid/7]] | 33 nM | – | – | no ag.
CC[C@H](C)[C@H](NC(=O)[C@H](CO)NC(=O)[C@H](Cc1ccc(O)cc1)NC(=O)[C@H](CC(=O)O)NC(=O)[C@H](CO)NC(=O)[C@@H](NC(=O)[C@H](Cc1ccccc1)NC(=O)[C@H](CCCCNC(=O)CCCCCCCCCCCCCCC(=O)O)NC(=O)CNC(=O)[C@@H](N)CCC(=O)O)[C@@H](C)CC)C(=O)N[C@@H](C)C(=O)N[C@@H](CCSC)C(=O)N[C@@H](CC(=O)O)C(=O)N[C@@H](CCCCN)C(=O)N[C@H](C(=O)N[C@@H](Cc1c[nH]cn1)C(=O)N[C@@H](CCC(N)=O)C(=O)N[C@@H](CCC(N)=O)C(=O)N[C@@H](CC(=O)O)C(=O)N[C@@H](Cc1ccccc1)C(=O)N[C@H](C(=O)N[C@@H](CC(N)=O)C(=O)N[C@@H](Cc1c[nH]c2ccccc12)C(=O)N[C@@H](CC(C)C)C(=O)N[C@@H](CC(C)C)C(=O)N[C@@H](C)C(=O)N[C@@H](CCC(N)=O)C(=O)N[C@@H](CCCCN)C(N)=O)C(C)C)[C@@H](C)CC [AT296, [hGIP(3-30)NH2[T5K]-C16diacid/5]] | 14 nM | 6.7% | 2.6 nM | –
CC[C@H](C)[C@H](NC(=O)[C@H](CO)NC(=O)[C@H](Cc1ccc(O)cc1)NC(=O)[C@H](CC(=O)O)NC(=O)[C@H](CO)NC(=O)[C@@H](NC(=O)[C@H](Cc1ccccc1)NC(=O)[C@@H](NC(=O)CNC(=O)[C@@H](N)CCC(=O)O)[C@@H](C)O)[C@@H](C)CC)C(=O)N[C@@H](C)C(=O)N[C@@H](CCCCNC(=O)CCCCCCCCCCCCCCC(=O)O)C(=O)N[C@@H](CC(=O)O)C(=O)N[C@@H](CCCCN)C(=O)N[C@H](C(=O)N[C@@H](Cc1c[nH]cn1)C(=O)N[C@@H](CCC(N)=O)C(=O)N[C@@H](CCC(N)=O)C(=O)N[C@@H](CC(=O)O)C(=O)N[C@@H](Cc1ccccc1)C(=O)N[C@H](C(=O)N[C@@H](CC(N)=O)C(=O)N[C@@H](Cc1c[nH]c2ccccc12)C(=O)N[C@@H](CC(C)C)C(=O)N[C@@H](CC(C)C)C(=O)N[C@@H](C)C(=O)N[C@@H](CCC(N)=O)C(=O)N[C@@H](CCCCN)C(N)=O)C(C)C)[C@@H](C)CC [AT305, [hGIP(3-30)NH2[M14K]-C16diacid/14]] (H-EGTFISDYSIAK(C16 diacid)DKIHQQDFVNWLLAQK-NH2; N-terminus assumed) | 166 nM | 12% | 8 nM | –
CCCCCCCCCCCCCCCCCC(=O)NCCCC[C@H](NC(=O)[C@H](CC(=O)O)NC(=O)[C@H](CCSC)NC(=O)[C@H](C)NC(=O)[C@@H](NC(=O)[C@H](CO)NC(=O)[C@H](Cc1ccc(O)cc1)NC(=O)[C@H](CC(=O)O)NC(=O)[C@H](CO)NC(=O)[C@@H](NC(=O)[C@H](Cc1ccccc1)NC(=O)[C@@H](N)[C@@H](C)O)[C@@H](C)CC)[C@@H](C)CC)C(=O)N[C@H](C(=O)N[C@@H](Cc1c[nH]cn1)C(=O)N[C@@H](CCC(N)=O)C(=O)N[C@@H](CCC(N)=O)C(=O)N[C@@H](CC(=O)O)C(=O)N[C@@H](Cc1ccccc1)C(=O)N[C@H](C(=O)N[C@@H](CC(N)=O)C(=O)N[C@@H](Cc1c[nH]c2ccccc12)C(=O)N[C@@H](CC(C)C)C(=O)N[C@@H](CC(C)C)C(=O)N[C@@H](C)C(=O)N[C@@H](CCC(N)=O)C(=O)N[C@@H](CCCCN)C(N)=O)C(C)C)[C@@H](C)CC [AT128, [hGIP(5-30)NH2—C18/16]] | 114 nM | 25% | – | –
